Results: US20260069599A1, “INHIBITORS OF BROMODOMAIN-CONTAINING PROTEIN 4 AND PHOSPHOINOSITIDE 3-KINASE” (Board of Regents of the University of Nebraska, priority 2022, published 2026)
“Also recorded” adds a separate entry of the source.

Experiments:
[1] = test system: HD-MB03 cells; assay: Annexin V/PI apoptosis assay in HD-MB03 cells; format: cell-based, human; conditions: 48 hours of treatment; untreated 29.76%
Method: For apoptosis assay, the cells were collected as above and stained with 500 μL 1× binding buffer containing 5 μL annexin V-FITC and 10 μL propidium iodide (PI) in the dark for 5 minutes. Flow cytometry (FACSCalibur™ cytometer, BD Biosciences) was performed to quantify and calculate the cell apoptosis rate. AV-FITC values were set horizontally, and PI values were set as vertical axes. All experiments were performed in triplicate.

[2] = test system: DAOY and HD-MB03 cell-generated tumors; assay: Subcutaneous MB tumor xenograft model; format: in vivo; conditions: for tumor growth / tumor burden: 15 mg/kg dose, vs vehicle treated control
Method: All the animal-related experiments were performed according to the Institutional Animal Care and Use Committee (IACUC) of the University of Nebraska Medical Center's approved protocol and met federal guidelines. Subcutaneous and orthotopic xenograft models were generated in this study. For establishing the xenograft model, DAOY cells (1×10^6) were injected into the right flank of 8-10 weeks old male and female mice. Tumor growth was measured non-invasively by using vernier calipers. For both measurements, tumor volumes were calculated by using the following formula: Volume=(Length×Width^2)/2.
(§1) A total of seven injections were given, and the mouse body weights were measured before every injection. The tumor growth was monitored by calipers in the case of the xenograft model and by IVIS imaging for the orthotopic model. For histological examination, the major organs of representative mice from each animal group were dissected and stained with H&E. Tissues after being fixed with 10% paraformaldehyde solution for 24 hours were embedded in 5 μm thick sections of paraffin, and were stained for different proteins. Stained slides were imaged at 40× magnification using an iScan HT Slide Scanner (Ventana Medical Systems, Inc, AZ).

[3] = test system: ONS-76 cells; assay: Side population (SP) assay; format: cell-based; conditions: 30 minutes preincubation; control 4.57%
Method: After washing thrice with staining buffer, 1×10^6 cells were stained with 5 μg/mL of Hoechst 33342 (Thermo Scientific; 62,249) for 1 hour in an incubator with occasional shaking every 20 minutes. The PI solution 5 μL was added to exclude dead cells and analyzed with flow cytometry (LSRII, BD Biosciences).

[4] = target: BRD4-BD2 (Homo sapiens, UniProt O60885); assay: Protein Thermal Shift (PTS) assay on BRD4-BD2; format: binding; set-up: polyhistidine (N, cleaved yes); made in house; host or cells: E. coli (T7 express); conditions: 100 μM ligand, 20 μM BD protein
Method: The genes encoding human BRD2-BD1, BRD2-BD2, and BRD4-BD2 were codon-optimized for expression in E. coli. […] The sequence-confirmed plasmids were used to transform T7 express E coli. Large-scale cell cultures were grown in LB media containing […] carbenicillin and incubated with shaking at 37° C. until the OD600 nm reached 0.6. Then cultures were cooled to 16° C., and 1 mM isopropyl β-D-1-thiogalactopyranoside was added to induce the protein expression. After 20 hours of incubation, cells were harvested. The resulting cell pellet was resuspended in a lysis buffer containing 50 mM Tris pH 7.5, 200 mM NaCl, 0.5 mM imidazole, and 0.3 mM tris(2-carboxyethyl) phosphine (TECP). After the addition of DNase I and lysozyme, the cell suspension was incubated on ice for 30 minutes and lysed by sonication. The lysate was clarified by centrifugation at 12,000 rpm for 45 minutes. The resulting supernatant was applied to a 5 mL metal affinity cobalt column pre-equilibrated with lysis buffer. Then, 25 column volumes of lysis buffer were passed through the column to eliminate unbound E coli proteins. Recombinant protein was eluted isocratically with the elution buffer containing 50 mM Tris pH 7.5, 200 mM NaCl, 150 mM imidazole, and 0.3 mM TECP. The rhinovirus 3C protease was added to the eluted recombinant protein to cleave the N-terminal Histidine tag and the sample dialyzed against a buffer containing 50 mM Tris pH 7.5, 100 mM NaCl and 0.3 mM TECP. After 12 hours, the protein solution was passed through a 5 ml cobalt column, which was pre-equilibrated with dialysis buffer, and the recombinant protein lacking the His-tag was collected from the flowthrough.
Each reaction used 20 μM concentration of recombinant BD protein in a 50 mM Tris pH 7.5 buffer containing 100 mM NaCl, 0.3 mM tris(2-carboxyethyl) phosphine HCl, and 1% dimethyl sulfoxide. Protein Thermal Shift Dye (ThermoFisher) was also added at 1× concentration. Under these conditions, 3 protein melting curves with each respective BD and 100 μM final concentration of ligand were performed from 25 to 95° C. with a ramp rate of 0.5° C./minute. Evaluation of the derivative of the fluorescence signal employed the Applied Bioscience Protein Thermal Shift Software version 1.3 to determine the average melting temperature (Tm) for each sample and the standard deviation(s) of those Tm values.

[5] = test system: HD-MB03 cells; assay: Cell cycle analysis in HD-MB03 cells; format: cell-based, human; conditions: 5 μM, 48 hours; control 44.7%
Description: FIGS. 3A-3F show the effect of MDP5 treatment on cell cycle analysis, induction of apoptosis, and colony formation assay in MB cells. […] Histograms show the quantitative analysis of cell cycle assay for DAOY (FIG. 3A) and HD-MB03 (FIG. 3B) cells (n=5; mean±S.D., p<0.05). […] FIG. 3C provides images of cells treated with the indicated compounds. […] FIGS. 3D and 3E provide graphs of the apoptotic assay showing higher numbers of apoptotic cells in MDP5 treated groups (n=5; mean±S.D.; p<0.05). FIG. 3F provides a graph of the relative expression of BCL2 and MYCN target genes after treatment, as determined by RT-PCR.
Cell cycle distribution was determined in proliferating MB cells. […] Cells were harvested with 0.25% EDTA-free trypsin (Gibco) and washed twice in ice-cold PBS. Control and treated cells (0.1×10^6) were stained with FxCycle™ PI/RNase Staining Solution (ThermoFisher Scientific) and analyzed for DNA content via flow cytometry.

[6] = target: T1, BRD2-BD2 (Homo sapiens, UniProt P25440); assay: Protein Thermal Shift (PTS) assay on BRD2-BD2; format: binding; conditions: 100 μM ligand, 20 μM BD protein; positive = Tm increase
T1 construct: polyhistidine (N, cleaved yes); made in house; host or cells: E. coli (T7 express)
Method: The genes encoding human BRD2-BD1, BRD2-BD2, and BRD4-BD2 were codon-optimized for expression in E. coli. […] The sequence-confirmed plasmids were used to transform T7 express E coli. Large-scale cell cultures were grown in LB media containing […] carbenicillin and incubated with shaking at 37° C. until the OD600 nm reached 0.6. Then cultures were cooled to 16° C., and 1 mM isopropyl β-D-1-thiogalactopyranoside was added to induce the protein expression. After 20 hours of incubation, cells were harvested. The resulting cell pellet was resuspended in a lysis buffer containing 50 mM Tris pH 7.5, 200 mM NaCl, 0.5 mM imidazole, and 0.3 mM tris(2-carboxyethyl) phosphine (TECP). After the addition of DNase I and lysozyme, the cell suspension was incubated on ice for 30 minutes and lysed by sonication. The lysate was clarified by centrifugation at 12,000 rpm for 45 minutes. […]
Each reaction used 20 μM concentration of recombinant BD protein in a 50 mM Tris pH 7.5 buffer containing 100 mM NaCl, 0.3 mM tris(2-carboxyethyl) phosphine HCl, and 1% dimethyl sulfoxide. […] Evaluation of the derivative of the fluorescence signal employed the Applied Bioscience Protein Thermal Shift Software version 1.3 to determine the average melting temperature (Tm) for each sample and the standard deviation(s) of those Tm values.

[7] = test system: DAOY cell generated orthotopic MB; assay: Intracranial orthotopic MB xenograft model; format: in vivo, NSG mice; conditions: for tumor at cerebellum region by H&E and Ki-67 IHC: vehicle-treated vs treated mice
Method: For the orthotopic MB model, stable luciferase-expressing DAOY cells (0.1×10^6) were used to generate the orthotopic MB tumor in NSG mice (Kumar, et al. (2021) Biomaterials 278:121138). Bioluminescence imaging using IVIS (Spectrum) was done to monitor the tumor growth weekly after implantation surgery.
as §1
Next, it was tested whether MDP5 treatment suppresses MB growth in an intracranial orthotopic xenograft model. DAOY cells stably expressing green fluorescent protein (GFP)/luciferase were injected into the cerebella of NSG mice. After twenty-one days of implantation, the tumor signal was measured with IVIS, and animals were divided into the vehicle (propylene glycol) or MDP5 treated groups. A drug solution was injected every three days for 28 days, and bioluminescence imaging was performed once a week.

T1 sequence (P25440 344-453 limits assumed): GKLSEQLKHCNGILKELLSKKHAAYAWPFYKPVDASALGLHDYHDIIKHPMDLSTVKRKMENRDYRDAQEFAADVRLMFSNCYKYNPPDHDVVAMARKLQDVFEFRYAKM

O=C(/C=C/N1CCOCC1)c1cccc(-c2cc3c(cc2Br)OCCO3)c1O [MDP1, (E)-1-(3-(7-bromo-2,3-dihydrobenzo [b][1,4]dioxin-6-yl)-2-hydroxyphenyl)-3-morpholinoprop-2-en-1-one]
percentage of apoptosis, HD-MB03 [1]: 65.66%
tumor growth / tumor burden [2]: significant inhibition of tumor growth
percentage of SP proportion [3]: 0.7%
BRD4-BD2 Tm decrease ([4]; thermal destabilization): 1.3 °C
cells in the G1 phase, HD-MB03 [5]: 26.2%

O=c1cc(N2CCOCC2)oc2c(-c3ccc4c(c3)OCCO4)cccc12 [MDP5, 8-(2,3-dihydrobenzo [b][1,4]dioxin-6-yl)-2-morpholino-4H-chromen-4-one]
percentage of apoptosis, HD-MB03 [1]: 65.15%
change in BRD2-BD2 melting temperature (Tm) [6]: 2.4 °C
tumor growth / tumor burden [2]: significant inhibition of tumor growth
toxicity / tolerability by body weight ([2]; 20 mg/kg i.v. every third day): no sign of toxicity; also recorded: well tolerated (no bodyweight change)
histologic examination of major organs (liver, lung, spleen, heart, kidneys) ([2]; 20 mg/kg, after completion of treatment): did not demonstrate toxicity
tumor growth (tumor volume) ([2]; 20 mg/kg, vs vehicle/control group): significantly affected tumor growth; also recorded: reduced tumor growth compared to the control group
H&E staining and Ki-67 IHC of tumors ([2]; DAOY and HD-MB03 generated tumors): suppressed cell proliferation and decreased tumor burden
tolerability by body weight and histological examination of vital organs ([2]; tested dose of b195 (15 mg/kg), vs vehicle control): well tolerated
survival ([7]; control animals all dead by day 35): four animals out of five survived up to 49 days; also recorded: prolonged the survival
orthotopic tumor growth (IVIS imaging) ([7]; injection every three days for 28 days): significant effect on the suppression of tumor growth; also recorded: significantly suppressed tumor growth in vivo
tumor at cerebellum region by H&E and Ki-67 IHC [7]: much larger tumor at the cerebellum region of the vehicle-treated mouse
bioluminescence (BLI) signal ([7]; vs rapid increase in control animals): low BLI signal
percentage of SP proportion [3]: 0.9%
BRD4-BD2 Tm increase [4]: 1.7 °C
cells in the G1 phase, HD-MB03 [5]: 52.2%

O=c1cc(N2CCOCC2)oc2c(-c3ccc4c(c3)OCCO4)csc12 [SF2523, reference compound]
percentage of apoptosis, HD-MB03 [1]: 54%
change in BRD2-BD2 melting temperature (Tm) [6]: 6.3 °C
tumor growth / tumor burden [2]: significant inhibition of tumor growth
tumor at cerebellum region by H&E and Ki-67 IHC [7]: much larger tumor at the cerebellum region of the vehicle-treated mouse
percentage of SP proportion [3]: 2.57%
BRD4-BD2 Tm increase [4]: 3.4 °C
cells in the G1 phase, HD-MB03 [5]: 58.9%
